Drawing on PubChem BioAssay (NCI), this text covers TGI and GI50 for eleven compounds.

“And” between values parts separate entries of the source, which are not always exact repeats. Equal entries are not always repeated.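 Growth conditions: 96-well plates. Treatment: test compound, 48 hours, 5 concentrations. Analysis: linear interpolation between bracketing concentrations; unreached endpoints set to highest concentration. Here, GI50 denotes the concentration required for 50% inhibition of growth. TGI is the concentration that stops growth completely.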 Some results are limits rather than exact numbers.

Broadly, the TGI is the concentration giving total growth inhibition. Lower therefore signals greater sensitivity of the cells. What is called GI50 is the concentration at which growth is held to half of that of the control.

Among the test systems are SF-295 CNS; EKVX NSCLC; UACC-257 melanoma; SNB-75 CNS; HL-60(TB) leukemia; OVCAR-4 ovarian; HCT-116 colon; OVCAR-8 ovarian; NCI-H522 lung; HOP-92 NSCLC.
Holding throughout (assay): DTP human tumour cell line panel, 48 h

As to `Cc1cn(C2CC3C(COCN3O)O2)c(=O)[nH]c1=O` (configuration not stated), the TGI with SF-295 CNS, with EKVX NSCLC, in the test on UACC-257 melanoma, with SNB-75 CNS, with HL-60(TB) leukemia and in the test on OVCAR-4 ovarian was greater than 100 µM in each case. Moreover, the TGI with HCT-116 colon and in the test on OVCAR-8 ovarian was greater than 100 µM each time.

Turning to `Nc1ncnc2c1N=C(c1ccc3c(c1)OCO3)CC(c1ccc([N+](=O)[O-])cc1)N2` (configuration not stated), the GI50 was 6.78 µM in the test with NCI-H522 lung; 64.2 µM with SF-295 CNS; 92.6 µM with EKVX NSCLC; greater than 100 µM in the test with UACC-257 melanoma; 39.4 µM with SNB-75 CNS; 13.1 µM in the test with HL-60(TB) leukemia. Besides, the GI50 was greater than 100 µM in the test on OVCAR-4 ovarian, 18.2 µM in the test on HCT-116 colon and 55.9 µM in the test with OVCAR-8 ovarian. The TGI in the test with NCI-H522 lung, in the test on SF-295 CNS, in the test with EKVX NSCLC, with UACC-257 melanoma, in the test with SNB-75 CNS and in the test on HL-60(TB) leukemia was greater than 100 µM throughout. Further, the TGI with OVCAR-4 ovarian, in the test with HCT-116 colon and in the test on OVCAR-8 ovarian was greater than 100 µM throughout.

With `O=C1CCCCCCCCCCC1CN1CCCC1` (configuration not stated), the concentration for total growth inhibition (TGI) in the test with NCI-H522 lung was greater than 100 µM; with SF-295 CNS it was 86.3 µM; in the test on UACC-257 melanoma, 49.3 µM; with SNB-75 CNS, greater than 100 µM; in the test with HL-60(TB) leukemia, greater than 100 µM; in the test with HCT-116 colon, greater than 100 µM. Also, the TGI in the test with OVCAR-8 ovarian is greater than 100 µM.

As to `Cc1nc(Nc2ccccc2)sc1C(=O)CC(=O)C(=O)Nc1c(C(C)C)cccc1C(C)C`, the TGI in the test on NCI-H522 lung is greater than 100 µM; in the test with SF-295 CNS, greater than 100 µM; with EKVX NSCLC, 89.5 µM; in the test with UACC-257 melanoma it was greater than 100 µM; with HOP-92 NSCLC, greater than 100 µM; in the test with HL-60(TB) leukemia it was greater than 100 µM. Moreover, the concentration for total growth inhibition (TGI) in the test with OVCAR-4 ovarian, with HCT-116 colon and in the test with OVCAR-8 ovarian was greater than 100 µM in each case.

On to `CC1=NN(C(=O)c2ccccc2O)C(=O)/C1=C/c1ccc(O)cc1`, for which the TGI with NCI-H522 lung is 17.4 µM; in the test on SF-295 CNS it was greater than 100 µM; in the test with EKVX NSCLC it was greater than 100 µM; in the test with UACC-257 melanoma it was greater than 100 µM; with SNB-75 CNS, greater than 100 µM; in the test with HL-60(TB) leukemia, greater than 41.1 µM. Further, the TGI in the test on OVCAR-4 ovarian, in the test on HCT-116 colon and with OVCAR-8 ovarian was greater than 100 µM each time.

Take `O=C(Nc1ccc(Br)cc1F)c1cc(I)ccc1O`: the GI50 in the test with NCI-H522 lung is 2.11 µM; in the test on SF-295 CNS, 2.11 µM; in the test on EKVX NSCLC it was 2.25 µM; in the test on UACC-257 melanoma it was 2.43 µM; with HOP-92 NSCLC it was 1.08 µM; with HL-60(TB) leukemia it was 2.13 µM. For the same compound, the GI50 with OVCAR-4 ovarian was 3.16 µM; in the test on HCT-116 colon, 2.79 µM; in the test on OVCAR-8 ovarian, 3.01 µM. Further, the TGI in the test with NCI-H522 lung stood at 7.16 µM; with SF-295 CNS it was 4.85 µM; in the test with EKVX NSCLC, 28.6 µM; in the test on UACC-257 melanoma it was 6.88 µM; in the test with HOP-92 NSCLC, 4.8 µM; with HL-60(TB) leukemia, 4.79 µM. Besides, the TGI with OVCAR-4 ovarian was greater than 100 µM; in the test on HCT-116 colon, 11.4 µM; in the test with OVCAR-8 ovarian it was 15.9 µM.

`CC[C@@]1(O)C(=O)OCc2c1cc1n(c2=O)Cc2cc3cc4c(cc3nc2-1)OCO4`: the TGI in the test with NCI-H522 lung was 0.113 µM; in the test with SF-295 CNS, 0.025 µM; in the test with UACC-257 melanoma, 0.345 µM and 0.259 µM; in the test on HOP-92 NSCLC, 0.166 µM and 0.051 µM; in the test with HCT-116 colon, 0.136 µM and 1.27 µM; in the test with OVCAR-8 ovarian, 0.369 µM. Moreover, the GI50 in the test on EKVX NSCLC was 0.415 µM; in the test with HCT-116 colon, less than 0.001 µM.

Turning to `C[C@@H]1[C@H](C)N1CC(O)Cn1ccnc1[N+](=O)[O-]` (some centres not stated), the TGI in the test with NCI-H522 lung, in the test with SF-295 CNS, with EKVX NSCLC, with UACC-257 melanoma, in the test with SNB-75 CNS and in the test on HL-60(TB) leukemia was greater than 100 µM throughout. Also, the TGI in the test with OVCAR-4 ovarian, in the test with HCT-116 colon and with OVCAR-8 ovarian was greater than 100 µM throughout.

In the case of `O=C1OCC2=C1C(c1cccc(Cl)c1)c1cc3c(cc1N2CCO)OCCO3` (configuration not stated), the GI50 in the test on NCI-H522 lung is 0.0204 µM; in the test with SF-295 CNS, 0.0403 µM; in the test with EKVX NSCLC it was 1.54 µM; in the test with UACC-257 melanoma, 0.0364 µM; in the test with SNB-75 CNS, 0.0419 µM; in the test on HL-60(TB) leukemia, 0.0472 µM. Moreover, the values for the GI50 in the test with OVCAR-4 ovarian, in the test with HCT-116 colon and in the test with OVCAR-8 ovarian were 0.118 µM, 0.0566 µM and 0.176 µM, respectively. Moreover, the TGI is 0.0608 µM in the test on NCI-H522 lung; 3.25 µM in the test on SF-295 CNS; greater than 89.8 µM with EKVX NSCLC; 28.2 µM in the test with UACC-257 melanoma; 39.3 µM in the test on SNB-75 CNS; 0.346 µM with HL-60(TB) leukemia. Moreover, the TGI in the test with OVCAR-4 ovarian is greater than 100 µM; with HCT-116 colon it was 4.01 µM; in the test on OVCAR-8 ovarian it was 4.33 µM.

As for `NC(=O)N/N=C1/CCC(O)CC1CC(=O)O` (configuration not stated), the TGI in the test with NCI-H522 lung is greater than 100 µM; in the test with SF-295 CNS, greater than 100 µM; with EKVX NSCLC, greater than 100 µM; in the test on UACC-257 melanoma, greater than 100 µM; in the test with HOP-92 NSCLC, greater than 100 µM; in the test on HL-60(TB) leukemia, 31.9 µM. The TGI in the test on OVCAR-4 ovarian, with HCT-116 colon and in the test on OVCAR-8 ovarian was greater than 100 µM throughout.

As to `CCCCCCC[CH2][Sn]([CH2]CCCCCCC)([O]c1cccc2cccnc12)[O]c1cccc2cccnc12`, the GI50 in the test on NCI-H522 lung is 0.605 µM; in the test on SF-295 CNS, 2.38 µM; in the test with EKVX NSCLC, 2.06 µM; in the test on UACC-257 melanoma it was 1.56 µM; in the test with SNB-75 CNS, 2.74 µM; in the test with HCT-116 colon, 2.37 µM. For the same compound, the GI50 with OVCAR-8 ovarian is 2.39 µM. Moreover, the TGI in the test with NCI-H522 lung came to 3.86 µM; with SF-295 CNS, 6.08 µM; with EKVX NSCLC, 7.18 µM; in the test with UACC-257 melanoma it was 4.56 µM; with SNB-75 CNS it was 9.53 µM; in the test on HCT-116 colon, 10.1 µM. For the same compound, in the test on OVCAR-8 ovarian, the total growth inhibition concentration (TGI) is 10.4 µM.
